{
  "source": "paper PMC11628255",
  "about": "“Interference of metal ions on the bioluminescent signal of firefly, Renilla, and NanoLuc luciferases in high-throughput screening assays” (Frontiers in Chemistry, 2024)",
  "target": "T1, firefly luciferase enzyme (FLuc) (Photinus pyralis, UniProt P08659)",
  "T1 construct": "commercial purified enzyme (Promega E1701)",
  "T1 sequence (P08659 whole entry)": "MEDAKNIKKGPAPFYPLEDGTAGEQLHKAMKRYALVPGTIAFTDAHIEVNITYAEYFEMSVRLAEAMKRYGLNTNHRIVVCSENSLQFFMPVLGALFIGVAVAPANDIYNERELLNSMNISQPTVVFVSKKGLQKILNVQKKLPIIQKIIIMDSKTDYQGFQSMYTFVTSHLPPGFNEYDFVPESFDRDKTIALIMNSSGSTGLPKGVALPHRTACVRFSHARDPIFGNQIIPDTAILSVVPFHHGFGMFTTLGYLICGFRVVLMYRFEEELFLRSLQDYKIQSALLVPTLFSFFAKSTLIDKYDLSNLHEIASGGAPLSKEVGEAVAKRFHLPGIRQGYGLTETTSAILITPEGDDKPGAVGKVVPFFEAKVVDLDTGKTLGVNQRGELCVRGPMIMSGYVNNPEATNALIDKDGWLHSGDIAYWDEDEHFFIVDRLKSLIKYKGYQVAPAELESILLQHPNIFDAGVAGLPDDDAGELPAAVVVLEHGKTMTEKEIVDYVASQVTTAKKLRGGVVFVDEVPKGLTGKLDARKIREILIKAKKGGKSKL",
  "assay": "bioluminescence read-out, 384-well plate",
  "format": "biochemical",
  "conditions": "10 µM ATP with 10 µM D-luciferin, 5 mM MgSO4; ATP and Mg needed for signal",
  "data": [
    {"smiles": "Nc1ncnc2c1ncn2[C@@H]1O[C@H](COP(=O)(O)OP(=O)(O)OP(=O)(O)O)[C@@H](O)[C@H]1O", "note": "[ATP]", "values": [
      {"measurement": "bioluminescence read-out, 384-well plate", "result": "both ATP and Mg still need to be present in the FLuc reaction buffer"}
    ]}
  ]
}
